According to patent US20100331310A1, “BICYCLOAMINE DERIVATIVES” (priority 2008, published 2010):
Counter-ions that a name gives are not always drawn.

Columns and labels:
human Nav1.8 = target: T1, human Nav1.8 (Homo sapiens, UniProt Q9Y5Y9); assay: Membrane potential increase-inhibitory action on TTX-resistant Na channels in cells expressing human Nav1.8 gene (deltamethrin stimulation); type: cell-based
T1 construct: expressed in transfected cells
Procedure: A cell line expressing human Nav1.8 gene was used to evaluate the pharmacological effects of compounds of the invention.
1. A membrane potential-sensitive dye containing TTX (final concentration: 0.25 μM) was added to cells expressing human Nav1.8, prior to incubation at 37° C. for 30-60 minutes. 2. The test compound was added to the cells, and the mixture was stationed for 15-30 minutes at room temperature while shielded from light. 3. Deltamethrin (final concentration: 50 μM), a Nav1.8 channel stimulant, was added, and the change in fluorescence intensity due to increased membrane potential was measured.
The Nav1.8 channel inhibition of the test compound was determined by the following equation.

[1] = test system: rats that exhibited ectopic firing (left saphenous nerve); assay: Suppression of ectopic firing in rats with cut saphenous nerve; type: in vivo; details: rat, urethane anesthesia, administration via catheter in right cervical vein; number of firings every 10 seconds; read-out: Suppressing activity on ectopic firing, ED50
Procedure: (1) The suppressing effect on ectopic firing was evaluated by the following method, with reference to Burchiel, K J., Exp. Neurol., 102, 249-253 (1988). […] The left saphenous nerve was exposed under urethane anesthesia (1 g/kg body weight), and an area approximately 1 cm adjacent to the cutting site was removed from the surrounding tissue. A catheter was inserted into the right cervical vein for administration of the compound. (3) The removed nerve was placed on a platinum hook electrode and covered with liquid paraffin to avoid drying of the nerve. The electrode was connected to a microelectrode amp, and the change in potential was recorded on a computer from an oscilloscope, via an A/D converter. The recorded nerve firing was evaluated based on the number of firings every 10 seconds, using analysis software (AcqKnowledge).

[2] = test system: sodium channels in cultured rat hippocampus; details: cited from earlier work
ectopic firing = details: as described in Patent document 1; cited from earlier work

T1 sequence (Q9Y5Y9 whole entry): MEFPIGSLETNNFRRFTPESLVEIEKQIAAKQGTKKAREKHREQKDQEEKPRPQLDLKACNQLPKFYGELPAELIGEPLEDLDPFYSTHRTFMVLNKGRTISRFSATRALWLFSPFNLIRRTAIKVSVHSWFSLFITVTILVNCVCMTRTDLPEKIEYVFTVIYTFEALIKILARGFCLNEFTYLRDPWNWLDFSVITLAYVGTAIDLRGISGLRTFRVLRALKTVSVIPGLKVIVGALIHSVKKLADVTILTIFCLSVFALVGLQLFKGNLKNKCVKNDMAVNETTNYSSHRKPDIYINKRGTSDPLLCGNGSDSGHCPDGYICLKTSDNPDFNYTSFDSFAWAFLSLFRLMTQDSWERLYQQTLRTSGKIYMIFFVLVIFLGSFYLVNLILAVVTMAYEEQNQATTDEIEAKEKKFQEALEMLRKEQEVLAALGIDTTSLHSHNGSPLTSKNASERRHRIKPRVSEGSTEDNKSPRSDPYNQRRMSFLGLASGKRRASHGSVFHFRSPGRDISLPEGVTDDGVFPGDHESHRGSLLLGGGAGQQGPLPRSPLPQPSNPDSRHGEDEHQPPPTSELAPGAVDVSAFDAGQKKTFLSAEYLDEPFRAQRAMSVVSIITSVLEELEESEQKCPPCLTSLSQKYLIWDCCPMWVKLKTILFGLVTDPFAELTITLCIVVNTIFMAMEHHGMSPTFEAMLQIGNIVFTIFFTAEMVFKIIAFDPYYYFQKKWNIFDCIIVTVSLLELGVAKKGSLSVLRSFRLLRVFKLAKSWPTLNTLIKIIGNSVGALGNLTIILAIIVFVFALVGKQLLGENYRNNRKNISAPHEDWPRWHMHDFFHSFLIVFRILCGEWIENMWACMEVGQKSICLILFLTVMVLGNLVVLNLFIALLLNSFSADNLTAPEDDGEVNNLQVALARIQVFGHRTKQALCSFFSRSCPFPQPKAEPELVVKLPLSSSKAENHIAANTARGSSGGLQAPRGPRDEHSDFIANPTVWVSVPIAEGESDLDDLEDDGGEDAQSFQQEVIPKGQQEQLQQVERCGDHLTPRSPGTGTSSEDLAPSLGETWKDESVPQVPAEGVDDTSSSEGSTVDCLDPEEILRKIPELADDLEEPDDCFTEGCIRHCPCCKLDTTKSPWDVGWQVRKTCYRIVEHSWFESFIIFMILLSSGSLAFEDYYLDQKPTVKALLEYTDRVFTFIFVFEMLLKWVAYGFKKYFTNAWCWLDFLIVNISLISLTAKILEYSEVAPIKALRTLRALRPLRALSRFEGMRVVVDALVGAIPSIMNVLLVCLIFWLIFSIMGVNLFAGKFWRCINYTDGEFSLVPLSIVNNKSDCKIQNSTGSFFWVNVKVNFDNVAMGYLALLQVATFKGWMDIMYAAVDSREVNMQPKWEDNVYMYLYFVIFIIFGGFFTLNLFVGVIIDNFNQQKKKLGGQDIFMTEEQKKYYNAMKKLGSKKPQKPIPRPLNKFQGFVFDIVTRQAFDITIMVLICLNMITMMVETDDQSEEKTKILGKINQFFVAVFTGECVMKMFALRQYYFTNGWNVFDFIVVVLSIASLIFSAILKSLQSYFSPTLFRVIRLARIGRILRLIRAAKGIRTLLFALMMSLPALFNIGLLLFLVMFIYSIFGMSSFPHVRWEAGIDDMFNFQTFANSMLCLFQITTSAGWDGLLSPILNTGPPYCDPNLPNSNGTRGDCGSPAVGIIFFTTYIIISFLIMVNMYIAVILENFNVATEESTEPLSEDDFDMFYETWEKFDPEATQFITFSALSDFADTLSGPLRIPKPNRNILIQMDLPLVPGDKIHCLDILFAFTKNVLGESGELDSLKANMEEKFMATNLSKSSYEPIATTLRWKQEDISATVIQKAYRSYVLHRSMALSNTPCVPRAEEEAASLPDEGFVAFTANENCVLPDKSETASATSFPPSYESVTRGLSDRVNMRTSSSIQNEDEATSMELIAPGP

Cc1nc(C)n(C)c(=O)c1CCN1[C@@H]2CC[C@H]1C[C@@H](OCc1ccccc1F)C2 [Example 184, (Endo)-5-{2-[3-(2-fluorobenzyloxy)-8-azabicyclo[3.2.1]oct-8-yl]ethyl}-2,3,6-trimethyl-3H-pyrimidin-4-one oxalate]
IC50 (human Nav1.8): 7.6 µM | ED50 [1]: 0.19 mg/kg

Cc1nn(C[C@H](F)CN2C3CCC2CC(OCc2cccc(F)c2)C3)c(=O)n1C (stereo partly drawn) [Example 1, (Endo)-2-{(R)-2-fluoro-3-[3-(3-fluorobenzyloxy)-8-azabicyclo[3.2.1]oct-8-yl]propyl}-4,5-dimethyl-2,4-dihydro[1,2,4]triazol-3-one]
IC50 (human Nav1.8): 3.2 µM | ED50 [1]: 0.14 mg/kg

O=c1n(-c2ccccc2)cnn1CCCN1[C@@H]2CC[C@H]1C[C@@H](OCc1ccccc1F)C2 [Example 58, (Endo)-2-{3-[3-(2-fluorobenzyloxy)-8-azabicyclo[3.2.1]oct-8-yl]propyl}-4-phenyl-2,4-dihydro[1,2,4]triazol-3-one]
IC50 (human Nav1.8): 0.13 µM | ED50 [1]: 0.18 mg/kg

O=c1n(CCCN2[C@@H]3CC[C@H]2C[C@@H](OCc2ccccc2F)C3)nc2ccccn12 [Example 145, (Endo)-2-{3-[3-(2-fluorobenzyloxy)-8-azabicyclo[3.2.1]oct-8-yl]propyl}-2H-[1,2,4]triazolo[4,3-a]pyridin-3-one]
IC50 (human Nav1.8): 0.53 µM | ED50 [1]: 0.28 mg/kg

CN1CCn2c1nn(CC(F)CN1[C@@H]3CC[C@H]1C[C@@H](OCc1ccc(F)cc1)C3)c2=O (stereo partly drawn) [Example 112, (Endo)-2-{2-fluoro-3-[3-(4-fluorobenzyloxy)-8-azabicyclo[3.2.1]oct-8-yl]propyl}-7-methyl-2,5,6,7-tetrahydroimidazo[2,1-c][1,2,4]triazol-3-one]
IC50 (human Nav1.8): 12 µM | ED50 [1]: 0.29 mg/kg

O=c1[nH]cccc1CN1CC2CCCC(C1)C2/C=C/c1ccccc1F (stereo not shown)
Inhibitory activity against sodium channels [2]: has an inhibitory activity | Inhibitory activity against ectopic firing (ectopic firing): inadequate

Cc1nc2ccccn2c(=O)c1CCN1[C@@H]2CC[C@H]1C[C@@H](OCc1ccccc1F)C2 [Example 179, (Endo)-3-{2-[3-(2-fluorobenzyloxy)-8-azabicyclo[3.2.1]oct-8-yl]ethyl}-2-methylpyrido[1,2-a]pyrimidin-4-one oxalate]
IC50 (human Nav1.8): 8.7 µM | ED50 [1]: 0.14 mg/kg

Cc1nn(C[C@H](F)CN2[C@@H]3CC[C@H]2C[C@@H](OCc2ccccc2F)C3)c(=O)n1C [Example 4, (Endo)-2-{(R)-2-fluoro-3-[3-(2-fluorobenzyloxy)-8-azabicyclo[3.2.1]oct-8-yl]propyl}-4,5-dimethyl-2,4-dihydro[1,2,4]triazol-3-one]
IC50 (human Nav1.8): 5 µM | ED50 [1]: 0.23 mg/kg

Cc1nn(C[C@H](F)CN2C3CCC2CC(OCc2ccccc2CF)C3)c(=O)n1C (stereo partly drawn) [Example 6, (Endo)-2-{(R)-2-fluoro-3-[3-(2-fluoromethylbenzyloxy)-8-azabicyclo[3.2.1]oct-8-yl]propyl}-4,5-dimethyl-2,4-dihydro[1,2,4]triazol-3-one]
IC50 (human Nav1.8): 5.2 µM | ED50 [1]: 0.27 mg/kg

Cc1nc(=O)n(C[C@@H](F)CN2C3CCC2CC(OCc2ccc(F)cc2)C3)c(=O)n1C (stereo partly drawn) [Example 12, (Endo)-3-{(S)-2-fluoro-3-[3-(4-fluorobenzyloxy)-8-azabicyclo[3.2.1]oct-8-yl]propyl}-1,6-dimethyl-1H-[1,3,5]triazine-2,4-dione oxalate]
IC50 (human Nav1.8): 8.7 µM | ED50 [1]: 0.28 mg/kg

O=c1nc2n(c(=O)n1CCCN1[C@@H]3CC[C@H]1C[C@@H](CCc1ccccc1F)C3)CCCC2 [Example 129, (Endo)-3-(3-{3-[2-(2-fluorophenyl)ethyl)-8-azabicyclo[3.2.1]oct-8-yl}propyl]-6,7,8,9-tetrahydropyrido[1,2-a][1,3,5]triazine-2,4-dione oxalate]
IC50 (human Nav1.8): 9.8 µM | ED50 [1]: 0.13 mg/kg

O=c1n(CCCN2[C@@H]3CC[C@H]2C[C@@H](OCc2ccccc2F)C3)nc2n1CCS2 [Example 116, (Endo)-2-{3-[3-(2-fluorobenzyloxy)-8-azabicyclo[3.2.1]oct-8-yl]propyl}-5,6-dihydro-2H-thiazolo[2,3-c][1,2,4]triazol-3-one]
IC50 (human Nav1.8): 5.8 µM | ED50 [1]: 0.15 mg/kg

Cc1cccc(COC2CC3CCC(C2)N3CC(F)Cn2nc(N(C)C)n(C)c2=O)c1 (stereo not drawn) [Example 25, (Endo)-5-dimethylamino-2-{2-fluoro-3-[3-(3-methylbenzyloxy)-8-azabicyclo[3.2.1]oct-8-yl]propyl}-4-methyl-2,4-dihydro[1,2,4]triazol-3-one]
IC50 (human Nav1.8): 0.71 µM | ED50 [1]: < 0.1 mg/kg

Cc1cc(-n2c(C)nn(CC(O)CN3[C@@H]4CC[C@H]3C[C@@H](OCc3ccccc3F)C4)c2=O)on1 (stereo partly drawn) [Example 47, (Endo)-2-{3-[3-(2-fluorobenzyloxy)-8-azabicyclo[3.2.1]oct-8-yl]-2-hydroxypropyl}-5-methyl-4-(3-methyl-isoxazol-5-yl)-2,4-dihydro[1,2,4]triazol-3-one oxalate]
IC50 (human Nav1.8): 1.3 µM | ED50 [1]: 0.18 mg/kg

O=c1n(CCCN2[C@@H]3CC[C@H]2C[C@@H](CCc2ccccc2F)C3)nc2ccccn12 [Example 149, (Endo)-2-(3-{3-[2-(2-fluorophenyl)ethyl)-8-azabicyclo[3.2.1]oct-8-yl}propyl]-2H-[1,2,4]triazolo[4,3-a]pyridin-3-one]
IC50 (human Nav1.8): 0.28 µM | ED50 [1]: 0.15 mg/kg

Cn1ccn2c(=O)n(CCCN3[C@@H]4CC[C@H]3C[C@@H](OCc3ccccc3F)C4)c(=O)nc12 [Example 174, (Endo)-3-{3-[3-(2-fluorobenzyloxy)-8-azabicyclo[3.2.1]oct-8-yl]propyl}-8-methyl-8H-imidazo[1,2-a][1,3,5]triazine-2,4-dione]
IC50 (human Nav1.8): 0.89 µM | ED50 [1]: 0.21 mg/kg

COC(CN1[C@@H]2CC[C@H]1C[C@@H](OCc1ccccc1F)C2)Cn1nc2ccccn2c1=O (stereo partly drawn) [Example 157, (Endo)-2-{3-[3-(2-fluorobenzyloxy)-8-azabicyclo[3.2.1]oct-8-yl]-2-methoxypropyl}-2H-[1,2,4]triazolo[4,3-a]pyridin-3-one]
IC50 (human Nav1.8): 1.2 µM | ED50 [1]: 0.28 mg/kg
